Experimental data: patent publication US8802082B2, “Rhodamine derivatives for photodynamic diagnosis and treatment” (Université de Montreal, priority 1999, dated 2014)

System: activated T lymphocytes (CD25+, CD4+ and CD8+)
Experiment: Phenotypic analysis of residual T lymphocytes after phototherapy (CD25, CD4, CD8 flow cytometry)
Type: cell-based, human
Conditions: 10 μM TH9402; 2.5, 5 and 10 joules/cm^2; 48 to 72 hours culture; untreated 14%
Procedure: In order to determine if the abrogation of reactivity toward subject B obtained after PDT correlated with the loss of activated T cells, the proportion of activated cells was determined in samples exposed or not to PDT. Activated cells can be discriminated from resting T lymphocytes by their enhanced expression of CD25, which can be detected with a monoclonal antibody specific for CD25, the inducible a chain of the IL-2 receptor. Briefly, after activation of T cells in mixed lymphocyte reaction, as described above, activated T lymphocytes were incubated in X-vivo 15 medium (BioWhittaker) supplemented with 2.5% human AB serum and 10 μM TH9402 for 40 min. These cells were than washed twice with X-vivo-15 medium supplemented with 10% AB human serum. At 110 min after the end of the incubation period, cells were exposed to doses of light ranging from 2.5 to 10 joules/cm^2 of using the above described light delivery device (U.S. Pat. No. 5,798,523). Light energy was delivered using a fluorescent scanning device with maximum wavelength at 512 nm. After treatment, cells were cultured for 48 to 72 hours in X-vivo-15 medium supplemented with 15% of human AB serum. After the latter incubation period, cells were counted and their immunophenotypes analyzed by dual-color flow cytometry to determine the proportion of activated T lymphocytes. […]

Compound: Br.COC(=O)c1ccccc1-c1c2ccc(=N)c(Br)c-2oc2c(Br)c(N)ccc12 [TH9402, 4,5-dibromorhodamine 123 (2-(4,5-dibromo-6-amino-3-imino-3H-xanthen-9-yl)-benzoic acid methyl ester) hydrobromide]
- proportion of activated T lymphocytes, both CD4+ and CD8+, after PDT: below 1%
